In ChEMBL document CHEMBL1152375 (Bioorg Med Chem Lett, 2009):
Activity calls are given as the source filed them. The calls are words filed in the database; no cut-off is given here.

Tests used:
[1] = biological target: T1, Hydroxycarboxylic acid receptor 3 (Homo sapiens, UniProt P49019); test: Agonist activity at GPR109b receptor transfected in CHOK1 cells assessed as inhibition of forskolin-induced cAMP generation by HTRF assay; assay type: functional, cell-based, CHO-K1
[2] = biological target: T1, Hydroxycarboxylic acid receptor 3; conditions: CHO-K1; 30 pM
[3] = biological target: Hydroxycarboxylic acid receptor 2 (Homo sapiens) (UniProt Q8TDS4); test: Agonist activity at GPR109a receptor transfected in CHOK1 cells assessed as inhibition of forskolin-induced cAMP generation at 30 pM to 100 uM by HTRF assay; assay type: functional, cell-based; conditions: CHO-K1
Hydroxycarboxylic acid receptor 2 (Homo sapiens), sequence (Q8TDS4 whole entry): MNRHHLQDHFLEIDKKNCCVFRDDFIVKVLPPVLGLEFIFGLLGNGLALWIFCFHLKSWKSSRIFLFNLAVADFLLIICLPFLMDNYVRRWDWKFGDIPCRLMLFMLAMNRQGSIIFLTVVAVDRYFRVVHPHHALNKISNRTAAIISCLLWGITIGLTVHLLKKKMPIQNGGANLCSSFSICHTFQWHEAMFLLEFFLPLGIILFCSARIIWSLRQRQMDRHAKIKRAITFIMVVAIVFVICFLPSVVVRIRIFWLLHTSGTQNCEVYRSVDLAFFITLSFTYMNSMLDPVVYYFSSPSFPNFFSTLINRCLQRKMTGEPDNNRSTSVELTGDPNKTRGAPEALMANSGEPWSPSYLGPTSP

[4] = biological target: T1, Hydroxycarboxylic acid receptor 3; test: Agonist activity at GPR109b receptor transfected in forskolin-stimulated CHOK1 cells assessed as cAMP generation at 10 uM by HTRF assay; assay type: functional, cell-based; conditions: CHO-K1

T1 sequence (P49019 whole entry): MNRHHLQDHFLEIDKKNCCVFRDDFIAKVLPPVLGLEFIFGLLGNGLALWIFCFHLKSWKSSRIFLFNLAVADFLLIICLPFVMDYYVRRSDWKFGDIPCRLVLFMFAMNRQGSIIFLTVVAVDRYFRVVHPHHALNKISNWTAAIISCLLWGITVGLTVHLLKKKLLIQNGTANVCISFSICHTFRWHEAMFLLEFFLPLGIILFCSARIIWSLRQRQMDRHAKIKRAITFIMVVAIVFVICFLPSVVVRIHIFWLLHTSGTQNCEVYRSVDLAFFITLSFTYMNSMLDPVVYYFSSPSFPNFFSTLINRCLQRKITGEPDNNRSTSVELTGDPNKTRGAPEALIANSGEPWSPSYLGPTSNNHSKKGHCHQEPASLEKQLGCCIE

| SMILES | EC50 [1] [µM] | also measured |
| --- | --- | --- |
| O=C(O)c1cc(N(CCc2ccccc2)CCc2ccccc2)[nH]n1 | 5.62 |  |
| O=C(O)c1cc(N(Cc2ccccc2)Cc2ccsc2)[nH]n1 | 0.0145 |  |
| O=C(O)c1cc(N(Cc2ccoc2)Cc2ccsc2)[nH]n1 |  | pEC50 [2]: inactive |
| O=C(O)c1cc(N(Cc2ccccc2F)Cc2ccccc2F)[nH]n1 | 8.71 | pEC50 [3]: inactive |
| O=C(O)c1cc(N(Cc2ccc(Br)s2)Cc2ccc(Br)s2)[nH]n1 |  | pEC50 [2]: inactive |
| O=C(O)c1cc(N(CC2CCCCC2)CC2CCCCC2)[nH]n1 |  | pEC50 [2]: inactive |
| CCCC(C)Nc1cc(C(=O)O)n[nH]1 (stereo unspecified) | 6.76 | pEC50 [3]: inactive |
| O=C(O)c1cc(N(Cc2cccc(F)c2)Cc2cccc(F)c2)[nH]n1 | > 10 |  |
| O=C(O)c1cc(N(Cc2ccc(F)cc2)Cc2ccsc2)[nH]n1 |  | pEC50 [2]: inactive |
| CCCCCCN(CCCCCC)c1cc(C(=O)O)n[nH]1 | > 10 |  |
| Cc1ccc(CN(Cc2ccc(C)s2)c2cc(C(=O)O)n[nH]2)s1 |  | pEC50 [2]: inactive |
| O=C(O)c1cc(N(CC2CC2)CC2CC2)[nH]n1 | 3.98 | pEC50 [3]: inactive |
| O=C(O)c1cc(N(Cc2ccc(F)cc2)Cc2ccc(F)cc2)[nH]n1 | > 10 | pEC50 [3]: inactive |
| O=C(O)c1cc(N(Cc2ccccc2)Cc2ccccc2)[nH]n1 | 0.851 |  |
| O=C(O)c1cc(N(Cc2ccsc2)Cc2ccsc2)[nH]n1 | 0.00316 |  |
| O=C(O)c1cc(N(Cc2ccoc2)Cc2ccoc2)[nH]n1 | 8.91 | pEC50 [3]: inactive |
| C=CCNc1ccc(C(=O)O)cn1 | 0.0417 | Activity [4]: 200% |
| CC(C)CCN(CCC(C)C)c1cc(C(=O)O)n[nH]1 | > 10 |  |
| CCC(C)Nc1cc(C(=O)O)n[nH]1 (stereo unspecified) | 4.47 | pEC50 [3]: inactive |
| O=C(O)c1cc(N(Cc2ccsc2)Cc2cccs2)[nH]n1 | 0.141 |  |
| O=C(O)c1cc(N(Cc2ccsc2)Cc2ccco2)[nH]n1 | > 10 |  |
| O=C(O)c1cc(NCc2ccccc2)[nH]n1 |  | pEC50 [2]: inactive |
| O=C(O)c1cc(N(Cc2cccs2)Cc2cccs2)[nH]n1 | 0.257 |  |
| CCCN(CCC)c1cc(C(=O)O)n[nH]1 | 8.32 |  |
